Data published in US10294202B2, “Pyrrolidinones as herbicides” (FMC Corporation, priority 2013, dated 2019).

Tests used:
sedge, umbrella = experiment: Test B flooded paddy test; format: in vivo, Cyperus difformis; settings: Flood, scale of 0 to 100 where 0 is no effect and 100 is complete control
Method in brief: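 First, plants reach the 2-leaf stage; next, pots are flooded to 3 cm and compound is delivered into the water; finally, after 13 to 15 greenhouse days at constant depth, injury is graded visually from 0 to 100 against controls.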

ryegrass, Italian = experiment: Test C pre-/postemergence herbicide test; format: in vivo, Lolium multiflorum
Method in brief: (§1)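 Pre-emergence: seeds sown in loam/sand blend and treated with compound in surfactant-containing solvent. Post-emergence: plants at 2–18 cm (1- to 4-leaf stage) in peat-based medium sprayed with the same formulation. Visual rating versus controls after 13–15 days in greenhouse, scale 0 (no effect) to 100 (complete control).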

johnsongrass = experiment: Test C pre-/postemergence herbicide test; format: in vivo, Sorghum halepense
Method in brief: as §1

wheat = experiment: Test A pre-/postemergence herbicide test; format: in vivo, Triticum aestivum
Method in brief: (§2)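 Seeds in loam–sand blend received preemergence directed soil spray; separately, plants 2–10 cm at one- to two-leaf stage received postemergence spray, both with test chemicals in non-phytotoxic solvent with surfactant. After ~10 days in greenhouse, injury rated visually against untreated controls, 0 (no effect) to 100 (complete control).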

pigweed = experiment: Test A pre-/postemergence herbicide test; format: in vivo, Amaranthus retroflexus
Method in brief: as §2

giant foxtail = experiment: Test A pre-/postemergence herbicide test; format: in vivo, Setaria faberii
Method in brief: as §2

blackgrass = experiment: Test C pre-/postemergence herbicide test; format: in vivo, Alopecurus myosuroides; settings: for Blackgrass plant response rating: scale 0 to 100, 0 is no effect and 100 is complete control
Method in brief: as §1

foxtail, giant = experiment: Test C pre-/postemergence herbicide test; format: in vivo, Setaria faberii
Method in brief: as §1

nutsedge, yellow = experiment: Test C pre-/postemergence herbicide test; format: in vivo, Cyperus esculentus
Method in brief: as §1

ragweed = experiment: Test C pre-/postemergence herbicide test; format: in vivo, Ambrosia elatior
Method in brief: as §1

crabgrass, large = experiment: Test C pre-/postemergence herbicide test; format: in vivo, Digitaria sanguinalis
Method in brief: as §1

[1] = Postemergence, 31 g ai/ha, scale 0 to 100 (0 no effect, 100 complete control)
[2] = Postemergence, 62 g ai/ha, scale 0 (no effect) to 100 (complete control)
[3] = Postemergence, 125 g ai/ha, scale 0 to 100 (0 no effect, 100 complete control)
[4] = Postemergence, 250 g ai/ha, scale 0 to 100 (0 no effect, 100 complete control)
[5] = Preemergence, 31 g ai/ha, scale 0 to 100, 0 is no effect and 100 is complete control
[6] = Preemergence, 62 g ai/ha, scale 0 to 100 (0 no effect, 100 complete control)
[7] = Preemergence, 125 g ai/ha, scale 0 to 100 (0 no effect, 100 complete control)
[8] = Postemergence, 125 g ai/ha, 0 to 100 scale, 0 is no effect, 100 is complete control
[9] = 125 g ai/ha, visual rating, 0 to 100 scale, 0 no effect, 100 complete control, approximately 10 days, preemergence
[10] = preemergence, 500 g ai/ha, 0 to 100 scale, 0 is no effect and 100 is complete control
[11] = Preemergence, 62 g ai/ha, scale 0 to 100
[12] = Postemergence, 31 g ai/ha, scale 0 (no effect) to 100 (complete control)
[13] = Postemergence, 62 g ai/ha, scale 0 to 100 (0 no effect, 100 complete control)
[14] = Postemergence, 125 g ai/ha, 0 to 100 scale, 0 no effect, 100 complete control
[15] = Postemergence, 500 g ai/ha, 0 to 100 scale (0 no effect, 100 complete control)
[16] = Preemergence, 125 g ai/ha, visual rating on 0 to 100 scale (0 no effect, 100 complete control)
[17] = preemergence, 500 g ai/ha, 0 to 100 scale

O=C1NCC(c2cccc(OC(F)F)c2)C1C(=O)Nc1cccc(F)c1F (stereo not drawn) [Compound 224]
Plant response rating, Sedge, Umbrella (sedge, umbrella; 500 g ai/ha): 0
Plant response rating, Ryegrass, Italian (ryegrass, Italian; [1]): 0
Plant response rating, Ryegrass, Italian (ryegrass, Italian; [2]): 0
Plant response rating, Ryegrass, Italian (ryegrass, Italian; [3]): 5
Plant response rating, Ryegrass, Italian (ryegrass, Italian; [4]): 5
Ryegrass, Italian plant response rating (ryegrass, Italian; [5]): 0
Ryegrass, Italian plant response rating (ryegrass, Italian; [6]): 0
Plant response rating, Ryegrass, Italian (ryegrass, Italian; [7]): 0
Plant response rating (scale of 0 to 100), Ryegrass, Italian (ryegrass, Italian; Preemergence, 250 g ai/ha): 15
Plant response rating, Johnsongrass (johnsongrass; [1]): 0
Plant response rating, Johnsongrass (johnsongrass; [2]): 0
Plant response rating, Johnsongrass (johnsongrass; [3]): 15
Plant response rating, Johnsongrass (johnsongrass; [4]): 25
Johnsongrass plant response rating (johnsongrass; [5]): 0
Johnsongrass plant response rating (johnsongrass; [6]): 35
Plant response rating, Johnsongrass (johnsongrass; [7]): 75
Plant response rating (scale of 0 to 100), Johnsongrass (johnsongrass; Preemergence, 250 g ai/ha): 85
Plant response rating, Wheat (wheat; [8]): 50
Wheat plant response rating (0 to 100 scale, 0 is no effect, 100 is complete control) (wheat; Postemergence, 500 g ai/ha): 60
Plant response rating, Pigweed (pigweed; [9]): 80
Plant response rating, Pigweed (pigweed; [8]): 60
Pigweed plant response rating (0 to 100 scale, 0 is no effect, 100 is complete control) (pigweed; Postemergence, 500 g ai/ha): 80
Plant response rating, Pigweed (pigweed; [10]): 80
Plant response rating, Foxtail, Giant (giant foxtail; [9]): 90
Plant response rating, Foxtail, Giant (giant foxtail; [8]): 80
Foxtail, Giant plant response rating (0 to 100 scale, 0 is no effect, 100 is complete control) (giant foxtail; Postemergence, 500 g ai/ha): 80
Plant response rating, Foxtail, Giant (giant foxtail; [10]): 90
Plant response rating, Blackgrass (blackgrass; [1]): 0
Plant response rating, Blackgrass (blackgrass; [2]): 0
Plant response rating, Blackgrass (blackgrass; [3]): 0
Plant response rating, Blackgrass (blackgrass; [4]): 0
Blackgrass plant response rating (blackgrass; Preemergence, 31 g ai/ha): 0
Plant response rating, Blackgrass (blackgrass; [11]): 65
Plant response rating, Blackgrass (blackgrass; [7]): 70
Plant response rating (scale of 0 to 100), Blackgrass (blackgrass; Preemergence, 250 g ai/ha): 85
Plant response rating, Foxtail, Giant (foxtail, giant; [1]): 0
Plant response rating, Foxtail, Giant (foxtail, giant; [2]): 0
Plant response rating, Foxtail, Giant (foxtail, giant; [3]): 60
Plant response rating, Foxtail, Giant (foxtail, giant; [4]): 35
Foxtail, Giant plant response rating (foxtail, giant; [5]): 80
Foxtail, Giant plant response rating (foxtail, giant; [6]): 90
Plant response rating, Foxtail, Giant (foxtail, giant; [7]): 95
Plant response rating (scale of 0 to 100), Foxtail, Giant (foxtail, giant; Preemergence, 250 g ai/ha): 98
Plant response rating, Nutsedge, Yellow (nutsedge, yellow; [1]): 0
Plant response rating, Nutsedge, Yellow (nutsedge, yellow; [2]): 0
Plant response rating, Nutsedge, Yellow (nutsedge, yellow; [3]): 0
Plant response rating, Nutsedge, Yellow (nutsedge, yellow; [4]): 0
Nutsedge, Yellow plant response rating (nutsedge, yellow; [5]): 0
Nutsedge, Yellow plant response rating (nutsedge, yellow; [6]): 10
Plant response rating, Nutsedge, Yellow (nutsedge, yellow; [7]): 0
Plant response rating (scale of 0 to 100), Nutsedge, Yellow (nutsedge, yellow; Preemergence, 250 g ai/ha): 0
Plant response rating, Ragweed (ragweed; [1]): 20
Plant response rating, Ragweed (ragweed; [2]): 65
Plant response rating, Ragweed (ragweed; [3]): 45
Plant response rating, Ragweed (ragweed; [4]): 80
Ragweed plant response rating (ragweed; [5]): 10
Ragweed plant response rating (ragweed; [6]): 40
Plant response rating, Ragweed (ragweed; [7]): 100
Plant response rating (scale of 0 to 100), Ragweed (ragweed; Preemergence, 250 g ai/ha): 100
Plant response rating, Crabgrass, Large (crabgrass, large; [1]): 0
Plant response rating, Crabgrass, Large (crabgrass, large; [2]): 35
Plant response rating, Crabgrass, Large (crabgrass, large; [3]): 55
Plant response rating, Crabgrass, Large (crabgrass, large; [4]): 75
Crabgrass, Large plant response rating (crabgrass, large; [5]): 90
Crabgrass, Large plant response rating (crabgrass, large; [6]): 90
Plant response rating, Crabgrass, Large (crabgrass, large; [7]): 90
Plant response rating (scale of 0 to 100), Crabgrass, Large (crabgrass, large; Preemergence, 250 g ai/ha): 100

O=C1NCC(c2ccc(C(F)(F)F)cc2)C1C(=O)Nc1ccccc1F (stereo not drawn) [Compound 231]
Plant response rating, Sedge, Umbrella (sedge, umbrella; 500 g ai/ha): 0
Ryegrass, Italian plant response rating (ryegrass, Italian; [5]): 0
Ryegrass, Italian plant response rating (ryegrass, Italian; [6]): 10
Plant response rating, Ryegrass, Italian (ryegrass, Italian; [7]): 15
Plant response rating (scale of 0 to 100), Ryegrass, Italian (ryegrass, Italian; Preemergence, 250 g ai/ha): 15
Johnsongrass plant response rating (johnsongrass; [5]): 0
Johnsongrass plant response rating (johnsongrass; [6]): 10
Plant response rating, Johnsongrass (johnsongrass; [7]): 45
Plant response rating (scale of 0 to 100), Johnsongrass (johnsongrass; Preemergence, 250 g ai/ha): 60
Plant response rating, Wheat (wheat; [8]): 20
Wheat plant response rating (0 to 100 scale, 0 is no effect, 100 is complete control) (wheat; Postemergence, 500 g ai/ha): 30
Plant response rating, Pigweed (pigweed; [9]): 70
Plant response rating, Pigweed (pigweed; [8]): 0
Pigweed plant response rating (0 to 100 scale, 0 is no effect, 100 is complete control) (pigweed; Postemergence, 500 g ai/ha): 40
Plant response rating, Pigweed (pigweed; [10]): 70
Plant response rating, Foxtail, Giant (giant foxtail; [9]): 90
Plant response rating, Foxtail, Giant (giant foxtail; [8]): 70
Foxtail, Giant plant response rating (0 to 100 scale, 0 is no effect, 100 is complete control) (giant foxtail; Postemergence, 500 g ai/ha): 90
Plant response rating, Foxtail, Giant (giant foxtail; [10]): 90
Blackgrass plant response rating (blackgrass; Preemergence, 31 g ai/ha): 50
Plant response rating, Blackgrass (blackgrass; [11]): 85
Plant response rating, Blackgrass (blackgrass; [7]): 85
Plant response rating (scale of 0 to 100), Blackgrass (blackgrass; Preemergence, 250 g ai/ha): 90
Foxtail, Giant plant response rating (foxtail, giant; [5]): 90
Foxtail, Giant plant response rating (foxtail, giant; [6]): 90
Plant response rating, Foxtail, Giant (foxtail, giant; [7]): 98
Plant response rating (scale of 0 to 100), Foxtail, Giant (foxtail, giant; Preemergence, 250 g ai/ha): 95
Nutsedge, Yellow plant response rating (nutsedge, yellow; [5]): 0
Nutsedge, Yellow plant response rating (nutsedge, yellow; [6]): 0
Plant response rating, Nutsedge, Yellow (nutsedge, yellow; [7]): 0
Plant response rating (scale of 0 to 100), Nutsedge, Yellow (nutsedge, yellow; Preemergence, 250 g ai/ha): 0
Ragweed plant response rating (ragweed; [5]): 80
Ragweed plant response rating (ragweed; [6]): 100
Plant response rating, Ragweed (ragweed; [7]): 80
Plant response rating (scale of 0 to 100), Ragweed (ragweed; Preemergence, 250 g ai/ha): 85
Crabgrass, Large plant response rating (crabgrass, large; [5]): 90
Crabgrass, Large plant response rating (crabgrass, large; [6]): 95
Plant response rating, Crabgrass, Large (crabgrass, large; [7]): 100
Plant response rating (scale of 0 to 100), Crabgrass, Large (crabgrass, large; Preemergence, 250 g ai/ha): 100

O=C1NCC(c2cc(F)c(F)cc2F)C1C(=O)Nc1cccc(F)c1F (stereo not drawn) [Compound 50]
Plant response rating, Sedge, Umbrella (sedge, umbrella; 250 g ai/ha): 55
Plant response rating, Ryegrass, Italian (ryegrass, Italian; [12]): 0
Plant response rating, Ryegrass, Italian (ryegrass, Italian; [13]): 0
Plant response rating, Ryegrass, Italian (ryegrass, Italian; [3]): 0
Plant response rating, Ryegrass, Italian (ryegrass, Italian; [4]): 0
Plant response rating, Johnsongrass (johnsongrass; [12]): 0
Plant response rating, Johnsongrass (johnsongrass; [13]): 0
Plant response rating, Johnsongrass (johnsongrass; [3]): 0
Plant response rating, Johnsongrass (johnsongrass; [4]): 10
Plant response rating, Wheat (wheat; [14]): 0
Plant response rating, Wheat (wheat; [15]): 0
Wheat plant response rating (wheat; [16]): 0
Plant response rating, Wheat (wheat; [17]): 0
Plant response rating, Pigweed (pigweed; [14]): 0
Plant response rating, Pigweed (pigweed; [15]): 0
Pigweed plant response rating (pigweed; [16]): 0
Plant response rating, Pigweed (pigweed; [17]): 0
Plant response rating, Foxtail, Giant (giant foxtail; [14]): 80
Plant response rating, Foxtail, Giant (giant foxtail; [15]): 80
Foxtail, Giant plant response rating (giant foxtail; [16]): 90
Plant response rating, Foxtail, Giant (giant foxtail; [17]): 90
Plant response rating, Blackgrass (blackgrass; [12]): 0
Plant response rating, Blackgrass (blackgrass; [13]): 0
Plant response rating, Blackgrass (blackgrass; [3]): 0
Plant response rating, Blackgrass (blackgrass; [4]): 0
Plant response rating, Foxtail, Giant (foxtail, giant; [12]): 0
Plant response rating, Foxtail, Giant (foxtail, giant; [13]): 5
Plant response rating, Foxtail, Giant (foxtail, giant; [3]): 5
Plant response rating, Foxtail, Giant (foxtail, giant; [4]): 10
Plant response rating, Nutsedge, Yellow (nutsedge, yellow; [12]): 0
Plant response rating, Nutsedge, Yellow (nutsedge, yellow; [13]): 0
Plant response rating, Nutsedge, Yellow (nutsedge, yellow; [3]): 0
Plant response rating, Nutsedge, Yellow (nutsedge, yellow; [4]): 5
Plant response rating, Ragweed (ragweed; [12]): 0
Plant response rating, Ragweed (ragweed; [13]): 0
Plant response rating, Ragweed (ragweed; [3]): 0
Plant response rating, Ragweed (ragweed; [4]): 10
Plant response rating, Crabgrass, Large (crabgrass, large; [12]): 10
Plant response rating, Crabgrass, Large (crabgrass, large; [13]): 25
Plant response rating, Crabgrass, Large (crabgrass, large; [3]): 40
Plant response rating, Crabgrass, Large (crabgrass, large; [4]): 75
